According to PMC8508980, “Design, Synthesis and Anticancer Profile of New 4-(1H-benzo[d]imidazol-1-yl)pyrimidin-2-amine-Linked Sulfonamide Derivatives with V600EBRAF Inhibitory Effect” (International Journal of Molecular Sciences, 2021):

Legend:
A375 cells = test: Antiproliferative MTT assay; format: cell-based; conditions: Homo sapiens, A-375, 48 h, mean ± S.D. of two experiments
Description: (§1) The effect of final target compounds over A375 and SK-MEL-5 was performed using reported procedures (detailed procedure is located in the Supplementary Information page 51s). […]
(§2) Evaluation of the Antiproliferative Activity Against A375 and SK-MEL-5
(§3) A375 and SK-MEL-5 cells were purchased from American Type Culture Collection (ATCC, Ro ckv ille, MD, USA) and maintained in Dulbecco’s modified eagle medium (DMEM, Welgene, Daegu, Republic of Korea) supplemented with 10% fetal bovine serum (FBS, Welgene, Daegu, Republic of Korea) and 1% penicillin/streptomycin (Welgene, Daegu, Republic of Korea) in a hu midified atmo sphere with 5% CO2 at 37 °C. Both cells were taken from culture substrate with 0.05% trypsin-0.02% EDTA and plated at a density of 5 × 10^3 cells/well in 96 well plates and then incubated at 37 °C fo r 24 h in a hu midified atmo sphere with 5% CO2 prior to treatment with various concentrations (3-fold serial dilution, 12 points) of the tested compounds. The cells were incubated for 48 h after treatment with the test compounds. The cell viability was assessed by the conventional 3-(4,5-dimethylthiazol-2-yl)-2,5-diphenyltetrazolium bromide (MTT) reduction assay. MTT assays were carried out with CellTiter 96® (Promega) according to the manufacturer’s instructions. The absorbance at 590 nm was recorded using EnVision 2103 (Perkin Elmer; Bo ston , MA, USA). The IC50 values were calculated using GraphPad Prism 4.0

SK-MEL-5 cells = test: Antiproliferative MTT assay; format: cell-based; conditions: Homo sapiens, 48 h, mean ± S.D. of two experiments
Description: as §1, §2, §3

Question: For `CNC(=O)c1cc(Oc2ccc(NC(=O)Nc3ccc(Cl)c(C(F)(F)F)c3)cc2)ccn1` [Sorafenib, reference compound], which IC50 (A375 cells) is on record?
Answer: The IC50 was 5.25 ± 0.74 µM.

Question: What about the IC50 (SK-MEL-5 cells) of the same compound?
Answer: Its IC50 is 9.22 ± 0.81 µM.
